Among the data in patent publication US20140357655A1, “SPIROINDOLINE DERIVATIVES AS GONADOTROPIN- RELEASING HORMONE RECEPTOR ANTAGONISTS” (Bayer Intellectual Property GmbH, priority 2012, published 2014) are IC50 values, retold here.

The assay deals with T1, human GnRH receptor (Homo sapiens, UniProt P30968).
T1 sequence (P30968 1-328): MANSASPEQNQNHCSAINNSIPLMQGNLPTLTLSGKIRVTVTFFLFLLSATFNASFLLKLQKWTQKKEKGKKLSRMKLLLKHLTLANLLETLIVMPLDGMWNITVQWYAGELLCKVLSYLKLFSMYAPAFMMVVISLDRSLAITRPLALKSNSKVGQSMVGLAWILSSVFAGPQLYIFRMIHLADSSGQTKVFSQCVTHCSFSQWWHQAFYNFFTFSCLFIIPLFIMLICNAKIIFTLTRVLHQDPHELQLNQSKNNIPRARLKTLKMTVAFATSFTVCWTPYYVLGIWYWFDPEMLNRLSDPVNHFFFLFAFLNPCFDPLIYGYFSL
In words: IP-One HTRF assay with buserelin (at EC80) stimulation. The format is cell-based. As to conditions: CHO cells stably expressing human GnRH receptor, read-out: Potency in IP-One HTRF assay, given as IC50. A digest of the protocol: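 CHO cells stably expressing human GnRH receptor, preincubated 1 h at 37° C with IP1-d2, were exposed to compound and buserelin at EC80 for 1 h at 37° C. After lysis with Tb-anti-IP1 antibody (1 h, 22° C), 665/620 nm HTRF ratio read; 10 concentrations, 20 μM–1 nM, duplicates, 4-parameter IC50.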
(In general: TR-FRET usually uses a lanthanide donor and a delayed reading to cut background.)
Regarding `COc1cccc(S(=O)(=O)N2c3ccc(C(=O)Nc4cccc(S(=O)(=O)N(C)C)c4)cc3C3(CCS(=O)(=O)CC3)C2C2CC2)c1` (single isomer, unassigned) [Example 43.1, 2-cyclopropyl-N-[3-(N,N-dimethylsulfamoyl)phenyl]-1-[(3-methoxyphenyl)sulfonyl]-1,2,2′,3′,5′,6′-hexahydrospiro[indole-3,4′-thiopyran]-5-carboxamide 1′,1′-dioxide], the IC50 (commonly the midpoint of a concentration-inhibition curve) came to 344 nM.
The same measure for `COc1cccc(S(=O)(=O)N2c3ccc(C(=O)Nc4cccc(S(=O)(=O)N(C)C)c4)cc3C3(CCS(=O)(=O)CC3)C2C2CC2)c1` (single isomer, unassigned) [Example 43.2, 2-cyclopropyl-N-[3-(N,N-dimethylsulfamoyl)phenyl]-1-[(3-methoxyphenyl)sulfonyl]-1,2,2′,3′,5′,6′-hexahydrospiro[indole-3,4′-thiopyran]-5-carboxamide 1′,1′-dioxide]: 36 nM.
For the molecule `COc1cccc(S(=O)(=O)N2c3ccc(C(=O)NCc4ccccc4Cl)cc3C3(CCS(=O)(=O)CC3)C2C2CC2)c1` (single isomer, unassigned) [Example 44.1, N-(2-chlorobenzyl)-2-cyclopropyl-1-[(3-methoxyphenyl)sulfonyl]-1,2,2′,3′,5′,6′-hexahydrospiro[indole-3,4′-thiopyran]-5-carboxamide 1′,1′-dioxide], the IC50 came to 25 nM.
Under `COc1cccc(S(=O)(=O)N2c3ccc(C(=O)NCc4ccccc4Cl)cc3C3(CCS(=O)(=O)CC3)C2C2CC2)c1` (single isomer, unassigned) [Example 44.2, N-(2-chlorobenzyl)-2-cyclopropyl-1-[(3-methoxyphenyl)sulfonyl]-1,2,2′,3′,5′,6′-hexahydrospiro[indole-3,4′-thiopyran]-5-carboxamide 1′,1′-dioxide] stands 302 nM; under `COc1cccc(S(=O)(=O)N2c3ccc(C(=O)NCc4ncccc4C)cc3C3(CCS(=O)(=O)CC3)C2C2CC2)c1` (single isomer, unassigned) [Example 45.1, 2-cyclopropyl-1-[(3-methoxyphenyl)sulfonyl]-N-[(3-methylpyridin-2-yl)methyl]-1,2,2′,3′,5′,6′-hexahydrospiro[indole-3,4′-thiopyran]-5-carboxamide 1′,1′-dioxide], 253 nM.
Under `COc1cccc(S(=O)(=O)N2c3ccc(C(=O)NCc4ncccc4C)cc3C3(CCS(=O)(=O)CC3)C2C2CC2)c1` (single isomer, unassigned) [Example 45.2, 2-cyclopropyl-1-[(3-methoxyphenyl)sulfonyl]-N-[(3-methylpyridin-2-yl)methyl]-1,2,2′,3′,5′,6′-hexahydrospiro[indole-3,4′-thiopyran]-5-carboxamide 1′,1′-dioxide] stands 4460 nM.
Under `COc1cccc(S(=O)(=O)N2c3ccc(C(=O)NCc4ccc(F)cc4Cl)cc3C3(CCS(=O)(=O)CC3)C2C2CC2)c1` (single isomer, unassigned) [Example 46.1, N-(2-chloro-4-fluorobenzyl)-2-cyclopropyl-1-[(3-methoxyphenyl)sulfonyl]-1,2,2′,3′,5′,6′-hexahydrospiro[indole-3,4′-thiopyran]-5-carboxamide 1′,1′-dioxide] stands 50 nM; under `COc1cccc(S(=O)(=O)N2c3ccc(C(=O)NCc4ccc(F)cc4Cl)cc3C3(CCS(=O)(=O)CC3)C2C2CC2)c1` (single isomer, unassigned) [Example 46.2, N-(2-chloro-4-fluorobenzyl)-2-cyclopropyl-1-[(3-methoxyphenyl)sulfonyl]-1,2,2′,3′,5′,6′-hexahydrospiro[indole-3,4′-thiopyran]-5-carboxamide 1′,1′-dioxide], 732 nM.
Regarding `COc1cccc(S(=O)(=O)N2c3ccc(C(=O)NCc4ccccc4F)cc3C3(CCS(=O)(=O)CC3)C2C2CC2)c1` (single isomer, unassigned) [Example 47.1, 2-cyclopropyl-N-(2-fluorobenzyl)-1-[(3-methoxyphenyl)sulfonyl]-1,2,2′,3′,5′,6′-hexahydrospiro[indole-3,4′-thiopyran]-5-carboxamide 1′,1′-dioxide], the IC50 was 73 nM.
Take `COc1cccc(S(=O)(=O)N2c3ccc(C(=O)NCc4ccccc4F)cc3C3(CCS(=O)(=O)CC3)C2C2CC2)c1` (single isomer, unassigned) [Example 47.2, 2-cyclopropyl-N-(2-fluorobenzyl)-1-[(3-methoxyphenyl)sulfonyl]-1,2,2′,3′,5′,6′-hexahydrospiro[indole-3,4′-thiopyran]-5-carboxamide 1′,1′-dioxide]: the IC50 came out at 8870 nM.
Consider `O=C(O)c1cccc(NC(=O)c2ccc3c(c2)C2(CCS(=O)(=O)CC2)C(C2CC2)N3S(=O)(=O)c2ccc(F)cc2)c1` (single isomer, unassigned) [Example 49.1, 3-[({2-cyclopropyl-1-[(4-fluorophenyl)sulfonyl]-1′,1′-dioxido-1,2,2′,3′,5′,6′-hexahydrospiro[indole-3,4′-thiopyran]-5-yl}carbonyl)amino]benzoic acid], for which the IC50 was 40 nM.
Turning to `O=C(O)c1cccc(NC(=O)c2ccc3c(c2)C2(CCS(=O)(=O)CC2)C(C2CC2)N3S(=O)(=O)c2ccc(F)cc2)c1` (single isomer, unassigned) [Example 49.2, 3-[({2-cyclopropyl-1-[(4-fluorophenyl)sulfonyl]-1′,1′-dioxido-1,2,2′,3′,5′,6′-hexahydrospiro[indole-3,4′-thiopyran]-5-yl}carbonyl)amino]benzoic acid], the IC50 was 109 nM.
Consider `NC(=O)c1cccc(NC(=O)c2ccc3c(c2)C2(CCS(=O)(=O)CC2)C(C2CC2)N3S(=O)(=O)c2ccc(F)cc2)c1` (single isomer, unassigned) [Example 51.1, N-(3-carbamoylphenyl)-2-cyclopropyl-1-[(4-fluorophenyl)sulfonyl]-1,2,2′,3′,5′,6′-hexahydrospiro[indole-3,4′-thiopyran]-5-carboxamide 1′,1′-dioxide], for which the IC50 worked out at 80 nM.
The same measure for `NC(=O)c1cccc(NC(=O)c2ccc3c(c2)C2(CCS(=O)(=O)CC2)C(C2CC2)N3S(=O)(=O)c2ccc(F)cc2)c1` (single isomer, unassigned) [Example 51.2, N-(3-carbamoylphenyl)-2-cyclopropyl-1-[(4-fluorophenyl)sulfonyl]-1,2,2′,3′,5′,6′-hexahydrospiro[indole-3,4′-thiopyran]-5-carboxamide 1′,1′-dioxide]: 1180 nM; for `COC(=O)c1cccc(S(=O)(=O)N2c3ccc(C(=O)NCc4ccccc4Cl)cc3C3(CCS(=O)(=O)CC3)C2C2CC2)c1` (single isomer, unassigned) [Example 60.1, methyl 3-({5-[(2-chlorobenzyl)carbamoyl]-2-cyclopropyl-1′,1′-dioxido-2′,3′,5′,6′-tetrahydrospiro[indole-3,4′-thiopyran]-1(2H)-yl}sulfonyl)benzoate]: 55 nM; for `COC(=O)c1cccc(S(=O)(=O)N2c3ccc(C(=O)NCc4ccccc4Cl)cc3C3(CCS(=O)(=O)CC3)C2C2CC2)c1` (single isomer, unassigned) [Example 60.2, methyl 3-({5-[(2-chlorobenzyl)carbamoyl]-2-cyclopropyl-1′,1′-dioxido-2′,3′,5′,6′-tetrahydrospiro[indole-3,4′-thiopyran]-1(2H)-yl}sulfonyl)benzoate]: 1140 nM.
Under `O=C(O)c1cccc(S(=O)(=O)N2c3ccc(C(=O)NCc4ccccc4Cl)cc3C3(CCS(=O)(=O)CC3)C2C2CC2)c1` (single isomer, unassigned) [Example 61.1, 3-({5-[(2-chlorobenzyl)carbamoyl]-2-cyclopropyl-1′,1′-dioxido-2′,3′,5′,6′-tetrahydrospiro[indole-3,4′-thiopyran]-1(2H)-yl}sulfonyl)benzoic acid] stands 84 nM.
Take `O=C(O)c1cccc(S(=O)(=O)N2c3ccc(C(=O)NCc4ccccc4Cl)cc3C3(CCS(=O)(=O)CC3)C2C2CC2)c1` (single isomer, unassigned) [Example 61.2, 3-({5-[(2-chlorobenzyl)carbamoyl]-2-cyclopropyl-1′,1′-dioxido-2′,3′,5′,6′-tetrahydrospiro[indole-3,4′-thiopyran]-1(2H)-yl}sulfonyl)benzoic acid]: the IC50 stood at 2010 nM.
The same measure for `COc1cccc(S(=O)(=O)N2c3ccc(C(=O)Nc4cccc(S(=O)(=O)N=C(N(C)C)N(C)C)c4)cc3C3(CCS(=O)(=O)CC3)C2C2CC2)c1` (single isomer, unassigned) [Example 62.1, N-(3-{[bis(dimethylamino)methylidene]sulfamoyl}phenyl)-2-cyclopropyl-1-[(3-methoxyphenyl)sulfonyl]-1,2,2′,3′,5′,6′-hexahydrospiro[indole-3,4′-thiopyran]-5-carboxamide 1′,1′-dioxide]: 6430 nM.
Regarding `COc1cccc(S(=O)(=O)N2c3ccc(C(=O)Nc4cccc(S(=O)(=O)N=C(N(C)C)N(C)C)c4)cc3C3(CCS(=O)(=O)CC3)C2C2CC2)c1` (single isomer, unassigned) [Example 62.2, N-(3-{[bis(dimethylamino)methylidene]sulfamoyl}phenyl)-2-cyclopropyl-1-[(3-methoxyphenyl)sulfonyl]-1,2,2′,3′,5′,6′-hexahydrospiro[indole-3,4′-thiopyran]-5-carboxamide 1′,1′-dioxide], the IC50 was determined as 4.8 nM.
